Key:
Type in all cases: in vivo
[1] = test system: Mediterranean fruitfly (Ceratitis capitata); assay: Test B.4: control of Mediterranean fruitfly, insect diet with eggs in microtiter plates; settings: 5 days
Description: For evaluating control of Mediterranean fruitfly (Ceratitis capitata) the test unit consisted of well-microtiter plates containing an insect diet and 50-80 C. capitata eggs. The compounds or mixtures were formulated using a solution containing 75 wt % water and 25 wt % DMSO. Different concentrations of formulated compounds or mixtures were sprayed onto the insect diet at 5 μl, using a custom built micro atomizer, at two replications.
(§1) For experimental mixtures in these tests identical volumes of both mixing partners at the desired concentrations respectively, were mixed together.
After application, microtiter plates were incubated at 28±1° C., 80±5% RH for 5 days. Egg and larval mortality was then visually assessed.

[2] = test system: vetch aphid (Megoura viciae); assay: Test B.1: control of vetch aphid on broad bean leaf disks in microtiter plates (contact or systemic); settings: 5 days
Description: For evaluating control of vetch aphid (Megoura viciae) through contact or systemic means the test unit consisted of microtiter plates containing broad bean leaf disks. The compounds or mixtures were formulated using a solution containing 75 wt % water and 25 wt % DMSO. Different concentrations of formulated compounds or mixtures were sprayed onto the leaf disks at 2.5 μl, using a custom built micro atomizer, at two replications.
as §1
After application, the leaf disks were air-dried and 5-8 adult aphids placed on the leaf disks inside the microtiter plate wells. The aphids were then allowed to suck on the treated leaf disks and incubated at 23±1° C., 50±5% RH (relative humidity) for 5 days. Aphid mortality and fecundity was then visually assessed.

[3] = test system: boll weevil (Anthonomus grandis); assay: Test B.3: control of boll weevil, insect diet with eggs in microtiter plates; settings: 5 days
Description: For evaluating control of boll weevil (Anthonomus grandis) the test unit consisted of well-microtiter plates containing an insect diet and 20-30 A. grandis eggs.
The compounds or mixtures were formulated using a solution containing 75 wt % water and 25 wt % DMSO. Different concentrations of formulated compounds or mixtures were sprayed onto the insect diet at 20 μl, using a custom built micro atomizer, at two replications.
as §1
After application, microtiter plates were incubated at 23±1° C., 50±5% RH for 5 days. Egg and larval mortality was then visually assessed.

[4] = test system: green peach aphid (Myzus persicae); assay: Test B.2: control of green peach aphid through systemic means, artificial diet under membrane in microtiter plates; settings: 3 days
Description: For evaluating control of green peach aphid (Myzus persicae) through systemic means the test unit consisted of microtiter plates containing liquid artificial diet under an artificial membrane.
The compounds or mixtures were formulated using a solution containing 75 wt % water and 25 wt % DMSO. Different concentrations of formulated compounds or mixtures were pipetted into the aphid diet, using a custom built pipetter, at two replications. For experimental mixtures in these tests identical volumes of both mixing partners at the desired concentrations respectively, were mixed together.
After application, 5-8 adult aphids were placed on the artificial membrane inside the microtiter plate wells. The aphids were then allowed to suck on the treated aphid diet and incubated at 23±1° C., 50±5% RH for 3 days. Aphid mortality and fecundity was then visually assessed.

[5] = 0.4 + 0 ppm (compound II + compound I), compound II alone
[6] = 2 + 0 ppm (compound II + compound I), compound II alone
[7] = 0 + 20 ppm (compound II + compound I), compound I alone
[8] = 0 + 0.8 ppm (compound II + compound I), compound I alone
[9] = 4 + 0 ppm (compound II + compound I), compound II alone
[10] = 200 + 0 ppm (compound II + compound I), compound II alone
[11] = 0.08 + 0 ppm (compound II + compound I), compound II alone

CC1(C)C(C=C(Cl)Cl)C1C(=O)OC(C#N)c1cccc(Oc2ccccc2)c1 (stereo not drawn) [Alphacypermethrin, alpha-cypermethrin]
Average Control % [1, 5]: 0% | Average Control % [2, 6]: 0%

CS(=O)(Cc1ccc(Cl)nc1)=NC#N (centres unmarked) [Compound C.I.1]
Average Control % [3, 7]: 0% | Average Control % [4, 7]: 50% | Average Control % ([1]; 0 + 4 ppm (compound II + compound I), compound I alone): 0% | Average Control % [1, 7]: 0% | Average Control % [2, 8]: 0%

CC(c1ccc(Cl)nc1)S(C)(=O)=NC#N (centres unmarked) [Compound C.I.2]
Average Control % ([1]; 0 + 10 ppm (compound II + compound I), compound I alone): 0% | Average Control % [1, 7]: 0% | Average Control % [2, 8]: 0%

CNC(=O)c1cc(C#N)cc(C)c1NC(=O)c1cc(Br)nn1-c1ncccc1Cl [Compound II.A^13.1]
Average Control % [1, 5]: 0%

N#Cc1nn(-c2c(Cl)cc(C(F)(F)F)cc2Cl)c(N)c1[S+]([O-])C(F)(F)F (centres unmarked) [Fipronil, fipronil]
Average Control % [2, 6]: 25%

O=[N+]([O-])NC1=NCCN1Cc1ccc(Cl)nc1 [Imidacloprid, imidacloprid]
Average Control % [3, 6]: 25% | Average Control % [1, 9]: 0%

CC(C)(C)c1ccc(CSc2cnn(C(C)(C)C)c(=O)c2Cl)cc1 [Pyridaben, pyridaben]
Average Control % [1, 10]: 50% | Average Control % [2, 10]: 50%

CNC(=O)c1cc(Cl)cc(C)c1NC(=O)c1cc(Br)nn1-c1ncccc1Cl [Rynaxypyr]
Average Control % [4, 11]: 0%

CCOC(=O)OC1=C(c2cc(C)ccc2C)C(=O)N[C@]12CC[C@@H](OC)CC2 [Spirotetramat, spirotetramat]
Average Control % [4, 9]: 0% | Average Control % ([2]; 100 + 0 ppm (compound II + compound I), compound II alone): 50%

CN1COCN(Cc2cnc(Cl)s2)/C1=N\[N+](=O)[O-] [Thiamethoxam, thiamethoxam]
Average Control % [4, 11]: 0%
